This is an account of results in patent publication US5710164A, “Diheterocyclic styryl nitriles” (American Home Products Corporation, priority 1995, dated 1998).

Read-outs that look alike come from different tables or passages of the source.

For data set [1], the system named is porcine aortic smooth muscle cells. Put plainly: inhibition of smooth muscle cell proliferation (3H thymidine, serum or PDGF stimulated). The class given is cell-based. The note with it: Sus scrofa, 24-36 h at 37° C. The procedure: The ability of the compounds of the present invention to inhibit smooth muscle cell proliferation was established using isolated porcine aortic smooth muscle cells in a modification of the procedure of Castellot et al. J. Biol. Chem 257(19) 11256 (1982), as follows:
Fresh porcine aortas, scrupulously cleansed of fatty tissue, are rinsed in sterile phosphate-buffered saline with 2% antibiotic-antimycotic (100×) liquid (10,000 units of penicillin (base), 10,000 μg of streptomycin (base), and 25 μg of amphotericin B/mL utilizing penicillin G (sodium salt), streptomycin sulfate, and amphotericin B as Fungizone® in 0.85% saline, available from Gibco Laboratories, Grand Island Biological Co., Grand Island, N.Y.). The tissue is then digested in 10-15 mL of an enzyme solution containing collagenase type I, 165 U/mL; elastase type III, 15 U/mL; BSA, 2 mg/mL; and soybean trypsin inhibitor, 0.375 mg/mL, followed by incubation at 37° C. under 5% CO2 atmosphere for 10 to 15 minutes. After this treatment, the outer surface adventitia is removed by peeling with a forceps. The aorta is then longitudinally cut and laid open and the endothelial layer is removed by scraping.
The medial layer of cells is rinsed in the enzyme solution, and placed in a new 100 mm dish with 10 mL of enzyme solution. The medial layer of cells is minced using a fine pair of scissors and digested for 2-3 hours at 37° C. in 30 mL of fresh enzyme solution. After digestion, the medial tissue is homogenized using a sterile Pasteur pipette with a fire polished tip or an Eppendorf pipetter with a 200-1000 μL sterile pipette tip. The suspension is then centrifuged for 10 minutes at 8000 rpm and the pellet is suspended in 4-6 mL of fresh enzyme solution and plated onto 4-6 100 mm flasks with vented caps. The cells are then allowed to grow to confluence and split using 0.25% trypsin. The cells are evaluated for purity and overall quality using antibody to SMC actin.
The cells are assayed in early passage (generally passage 3-7) at sub-confluent conditions. Cultures are grown in 16 mm (24 well) multi-well culture dishes in media 199 supplemented with 10% fetal bovine serum and 2% antibiotic/antimycotic. At subconfluence, the cells are placed in a defined serum free, lymphocyte medium (AIM-V; Gibco) for 24-48 hours prior to initiating the experimental protocol.
The standard test procedure is initiated by addition of the test compound, ^3 H thymidine and serum or a specific growth factor to the serum deprived synchronized cells. Growth factor and serum stimulations are optimized for each cell type. The test compounds are added to each well at 50 fold dilution (20 μL/well) and the plates are incubated for 24-36 hours at 37° C. in 5% CO2 atmosphere. Test compounds are dissolved in 50% ethanol and assayed at 1, 10, and 100 μM. As a control, RG 50872 (Bilder, G. A.; et al., Am. J. Cell Physiol., 1991; 260: C721) is routinely assayed under the conditions of each cell preparation at a concentration of 5 μM.
At the completion of the experiment, the plates are placed on ice, washed three times with ice cold PBS and incubated in ice cold 10% trichloroacetic acid (TCA) for 30 minutes to remove acid soluble proteins. Each solution is transferred to a scintillation vial containing 0.4N HCl (500 μL/vial to neutralize NaOH) and each well is rinsed two times with water (500 μL) for a total volume of 2 mL/vial.
Data is quantitated by subjecting the vials to a scintillation counter, in triplicate, for both control and experimental samples. Control (100%) data is obtained from maximally stimulated cells, as the result of growth factor or serum stimulation. Experimental data is obtained from cells maximally stimulated with growth factor or serum and treated with a test compound. (The platelet-derived growth factor used in the assay was human recombinant PDGF-AB purchased from Upstate Biotechnology Inc., Lake Placid, N.Y.). Data is expressed as a percent of control from which IC50 s are determined.

Data set [2] can be described thus: cytotoxicity, modified MTT assay (% viable cells). It counts as cell-based, porcine. The note with it: pig, smooth muscle cells; fresh medium without serum, 24 h at 37° C.; no drug = 100% viable. The procedure:
To distinguish cytotoxicity from the ability of a compound to prevent proliferation, the test compounds were examined using a commercial modification of the MTT assay. Briefly, cells were grown in 24 well plates to 70-80% confluency. The cells were serum deprived for 24-48 hours prior to initiation of the experimental protocol. To insure that the MTT assay monitored toxicity rather than proliferation, the cells were incubated with […] test compound in fresh medium without serum for 24 hours at 37° C. in a humidified CO2 incubator. Upon completion of the compound treatment, MTT indicator dye was added for 4 hours at 37° C. Cells were then solubilized and aliquots from each well were transferred to a 96-well plate for analysis. Absorbance at 570 nm wavelength with a reference wavelength of 630 nm was recorded using an ELISA plate reader. Results are reported as percent viable using no drug (100% viable) and pre-solubilization (0% viable) standards.
For orientation: Tetrazolium assays rely on reduction of a dye to a coloured formazan, in cell work by metabolically active cells.

[3] abbreviates: human recombinant PDGF-AB stimulated, read-out: Porcine Smooth Muscle Cell Antiproliferation IC50 or % Inhibition at x Concentration, PDGF.
[4] abbreviates: serum-stimulated, read-out: Porcine Smooth Muscle Cell Antiproliferation IC50 or % Inhibition at x Concentration, Serum.

Turning to `N#C/C(=C\c1ccncc1)c1cccnc1` [Example 1, Z-2-(Pyridin-3yl)-3-(pyridin-4-yl)-acrylonitrile], the IC50 in data set [1] (setting [3]) came out at 346 nM; in data set [1] (setting [4]), 1160 nM. The viability – broadly, a read-out of living cells in per cent, often relative to untreated cells – at 24 h in data set [2] stood at 100%.
The corresponding values for `N#CC(=Cc1c[nH]c2ncccc12)c1cccnc1` [Example 6, 2-(Pyridin-3-yl)-3-(1H-pyrrolo[2,3-b]pyridin-3-yl)-acrylonitrile] are 900 nM, 1180 nM and 100%.
Regarding `N#CC(=Cc1cccnc1)c1cccnc1` [Example 5, 2,3-Di-pyridin-3-yl-acrylonitrile], in data set [1] (setting [4]), the IC50 amounted to 96600 nM.
The same measure, in the same setting: then `N#CC(=Cc1ccnc2ccccc12)c1cccnc1` [Example 2, 2-Pyridin-3-yl-3-quinolin-4-yl-acrylonitrile], with 81000 nM.
In the case of `N#C/C(=C\c1ccc2c(c1)OCCO2)c1c[nH]c2ncccc12` [Example 7, (Z)-3-(2,3-Dihydro-benzo[1,4]dioxin-6-yl)-2-(1H-pyrrolo-[2,3-b]pyridin-3-yl)-acrylonitrile], the IC50 in data set [1] (setting [3]) amounted to 14800 nM; in data set [1] (setting [4]) it was 1230 nM. Also, the viability at 24 h in data set [2] stood at 100%.
For the molecule `N#CC(=Cc1ccc2c(c1)OCCO2)c1cccnc1` [Example 3, 3-(2,3-Dihydro-benzo[1,4]dioxin-6-yl)-2-pyridin-3-yl-acrylonitrile], the values for the IC50 in data set [1] (setting [3]) and in data set [1] (setting [4]) were 10500 nM and 3800 to 11500 nM, respectively. Moreover, the viability at 24 h in data set [2] was 86%.
For `N#CC(=Cc1ccc[nH]1)c1cccnc1` [Example 9, 2-(Pyridin-3-yl)-3-(1H-pyrrol-2-yl)-acrylonitrile], the IC50 in data set [1] (setting [4]) is 92000 nM. This molecule also returned a viability at 24 h in data set [2] of 84%.
Consider `CCn1c2ccccc2c2cc(/C=C(\C#N)c3cccnc3)ccc21` [Example 8, (Z)-3-(9-Ethyl-9H-carbazol-3-yl)-2-(pyridin-3-yl) acrylonitrile], for which the IC50 in data set [1] (setting [3]) amounted to 336 nM; in data set [1] (setting [4]), 355 nM. The same molecule came in with a viability at 24 h in data set [2] of 100%.
Consider `N#CC(=Cc1ccccn1)c1cccnc1` [Example 4, 2-Pyridin-3-yl-3-pyridin-2-yl-acrylonitrile], for which the IC50 in data set [1] (setting [4]) was determined as 48300 nM. In data set [2], this molecule had a viability at 24 h of 92%.
